Assay results taken from ChEMBL document CHEMBL3232727, “Evaluation of bisindole as potent β-glucuronidase inhibitors: synthesis and in silico based studies” (Bioorg Med Chem Lett, 2014).

target: T1, Beta-glucuronidase (Bos taurus) (UniProt A3KMY8); experiment: (§1) Inhibition of bovine liver beta-glucuronidase using p-nitrophenyl-beta-D-glucuronide as substrate after 30 mins by spectrophotometry; set-up: concentration or dose not given beside the values
T1 sequence (whole entry): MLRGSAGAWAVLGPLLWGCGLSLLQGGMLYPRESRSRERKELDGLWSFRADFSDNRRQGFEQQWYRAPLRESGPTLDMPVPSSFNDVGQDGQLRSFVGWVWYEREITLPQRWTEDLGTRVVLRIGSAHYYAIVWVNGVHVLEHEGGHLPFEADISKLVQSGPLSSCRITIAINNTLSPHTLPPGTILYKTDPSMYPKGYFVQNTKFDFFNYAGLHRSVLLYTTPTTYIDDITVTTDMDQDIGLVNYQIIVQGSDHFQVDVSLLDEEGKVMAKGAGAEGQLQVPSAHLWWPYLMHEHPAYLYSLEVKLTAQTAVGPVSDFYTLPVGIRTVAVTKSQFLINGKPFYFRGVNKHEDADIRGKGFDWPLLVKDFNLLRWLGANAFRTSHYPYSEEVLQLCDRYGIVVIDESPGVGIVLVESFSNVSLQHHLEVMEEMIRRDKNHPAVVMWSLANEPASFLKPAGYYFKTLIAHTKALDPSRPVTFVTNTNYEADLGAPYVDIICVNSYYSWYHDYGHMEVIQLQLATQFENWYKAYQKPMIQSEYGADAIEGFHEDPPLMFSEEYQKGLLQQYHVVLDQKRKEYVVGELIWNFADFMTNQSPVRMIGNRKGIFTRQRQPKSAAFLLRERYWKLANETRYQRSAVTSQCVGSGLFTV

Row | SMILES | inhibition [%]
1 | CSc1ccc(C(c2c[nH]c3ccc(C#N)cc23)c2c[nH]c3ccc(C#N)cc23)cc1 | < 50
2 | O=[N+]([O-])c1ccc(C(c2c[nH]c3ccc(Br)cc23)c2c[nH]c3ccc(Br)cc23)cc1 | < 50
3 | O=[N+]([O-])c1ccccc1C(c1c[nH]c2ccc(Br)cc12)c1c[nH]c2ccc(Br)cc12 | < 50
4 | N#Cc1ccc2[nH]cc(C(c3ccc(Cl)c(Cl)c3)c3c[nH]c4ccc(C#N)cc34)c2c1 | < 50
5 | CSc1ccc(C(c2c[nH]c3ccc(Br)cc23)c2c[nH]c3ccc(Br)cc23)cc1 | < 50
6 | COc1ccccc1C(c1c[nH]c2ccc(Br)cc12)c1c[nH]c2ccc(Br)cc12 | < 50
7 | COc1cc(C(c2c[nH]c3ccc(Br)cc23)c2c[nH]c3ccc(Br)cc23)ccc1O | < 50

target: T2, Beta-glucuronidase (Bos taurus, UniProt A3KMY8); experiment: as §1
T2 sequence (A3KMY8 whole entry): T1 sequence (whole entry)

Row | SMILES | IC50 [µM]
8 | Clc1cccc(C(c2c[nH]c3ccc(Br)cc23)c2c[nH]c3ccc(Br)cc23)c1 | 22.3
9 | Clc1ccc(C(c2c[nH]c3ccc(Br)cc23)c2c[nH]c3ccc(Br)cc23)cc1Cl | 21.5
10 | Cc1ccccc1C(c1c[nH]c2ccc(Br)cc12)c1c[nH]c2ccc(Br)cc12 | 20.9
11 | Oc1ccc(C(c2c[nH]c3ccc(Br)cc23)c2c[nH]c3ccc(Br)cc23)c(O)c1 | 1.62
12 | Fc1ccccc1C(c1c[nH]c2ccc(Br)cc12)c1c[nH]c2ccc(Br)cc12 | 18.4
13 | N#Cc1ccc2[nH]cc(C(c3ccccc3[N+](=O)[O-])c3c[nH]c4ccc(C#N)cc34)c2c1 | 19.9
